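Tested at 5 concentrations; 48 h exposure; 96-well plates; endpoints linearly interpolated, else capped at highest concentration. At the GI50, growth is halved.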 Activity calls are given as the source filed them. No stated cut-off is given here; in the data, active = GI50 up to about 1.1 µM and inactive = higher.
Columns and labels:
Assay in all cases: NCI tumour cell line growth inhibition, 48 h
MDA-N = tested on: MDA-N
SN12C = tested on: SN12C
OVCAR-4 = tested on: OVCAR-4
SK-MEL-5 = tested on: SK-MEL-5
NCI-H522 = tested on: NCI-H522
BT-549 = tested on: BT-549
HCC 2998 = tested on: HCC 2998
DU-145 = tested on: DU-145
SF-268 = tested on: SF-268
MDA-MB-231 = tested on: MDA-MB-231
K562 = tested on: K562
SW-620 = tested on: SW-620
HCT-116 = tested on: HCT-116
SK-MEL-2 = tested on: SK-MEL-2
NCI-H226 = tested on: NCI-H226
HT-29 = tested on: HT-29
NCI-H23 = tested on: NCI-H23
NCI/ADR-RES = tested on: NCI/ADR-RES
SK-MEL-28 = tested on: SK-MEL-28
MDA-MB-435 = tested on: MDA-MB-435
MOLT-4 = tested on: MOLT-4
OVCAR-3 = tested on: OVCAR-3
MCF7 = tested on: MCF7
EKVX = tested on: EKVX
SF-295 = tested on: SF-295
UO-31 = tested on: UO-31
M14 = tested on: M14
SNB-19 = tested on: SNB-19
KM12 = tested on: KM12
SNB-75 = tested on: SNB-75
786-0 = tested on: 786-0
OVCAR-5 = tested on: OVCAR-5
T47D = tested on: T47D
HOP-62 = tested on: HOP-62
IGROV-1 = tested on: IGROV-1
ACHN = tested on: ACHN
SK-OV-3 = tested on: SK-OV-3
TK-10 = tested on: TK-10
CCRF-CEM = tested on: CCRF-CEM
Malme-3M = tested on: Malme-3M
COLO 205 = tested on: COLO 205
RPMI-8226 = tested on: RPMI-8226
PC-3 = tested on: PC-3
UACC-62 = tested on: UACC-62
A549 = tested on: A549
Hs-578T = tested on: Hs-578T
HCT-15 = tested on: HCT-15
RXF 393 = tested on: RXF 393
OVCAR-8 = tested on: OVCAR-8
U-251 = tested on: U-251
CAKI-1 = tested on: CAKI-1
UACC-257 = tested on: UACC-257
A498 = tested on: A498
HL-60 = tested on: HL-60
LOX IMVI = tested on: LOX IMVI
SF-539 = tested on: SF-539
HOP-92 = tested on: HOP-92
NCI-H460 = tested on: NCI-H460

For `COC(=O)CCC1(C)C2CCC1(C)/C(=N/O)C2` (stereo unspecified), the GI50 (MDA-N) was > 100 µM (inactive), the GI50 (SN12C) was > 100 µM (inactive) and the GI50 (OVCAR-4) was > 100 µM (inactive). For the same compound, the GI50 (SK-MEL-5) was > 100 µM (inactive), the GI50 (NCI-H522) was > 100 µM (inactive) and the GI50 (BT-549) was > 100 µM (inactive). The GI50 (HCC 2998) was > 100 µM (inactive), the GI50 (DU-145) was > 100 µM (inactive) and the GI50 (SF-268) was > 100 µM (inactive). The GI50 (MDA-MB-231) was > 100 µM (inactive), the GI50 (K562) was > 100 µM (inactive) and the GI50 (SW-620) was > 100 µM (inactive). For the same compound, the GI50 (HCT-116) was > 100 µM (inactive), the GI50 (SK-MEL-2) was > 100 µM (inactive) and the GI50 (NCI-H226) was > 100 µM (inactive). For the same compound, the GI50 (HT-29) was > 100 µM (inactive), the GI50 (NCI-H23) was > 100 µM (inactive) and the GI50 (NCI/ADR-RES) was > 100 µM (inactive). The GI50 (SK-MEL-28) was > 100 µM (inactive), the GI50 (MDA-MB-435) was > 100 µM (inactive) and the GI50 (MOLT-4) was > 100 µM (inactive). The GI50 (OVCAR-3) was > 100 µM (inactive), the GI50 (MCF7) was > 100 µM (inactive) and the GI50 (EKVX) was > 100 µM (inactive). For the same compound, the GI50 (SF-295) was > 100 µM (inactive), the GI50 (UO-31) was > 100 µM (inactive) and the GI50 (M14) was > 100 µM (inactive). The GI50 (SNB-19) was > 100 µM (inactive), the GI50 (KM12) was > 100 µM (inactive) and the GI50 (SNB-75) was > 100 µM (inactive). For the same compound, the GI50 (786-0) was > 100 µM (inactive), the GI50 (OVCAR-5) was > 100 µM (inactive) and the GI50 (T47D) was > 100 µM (inactive). The GI50 (HOP-62) was > 100 µM (inactive), the GI50 (IGROV-1) was > 100 µM (inactive) and the GI50 (ACHN) was > 100 µM (inactive). For the same compound, the GI50 (SK-OV-3) was > 100 µM (inactive), the GI50 (TK-10) was > 100 µM (inactive) and the GI50 (CCRF-CEM) was > 100 µM (inactive). The GI50 (Malme-3M) was > 100 µM (inactive), the GI50 (COLO 205) was > 100 µM (inactive) and the GI50 (RPMI-8226) was > 100 µM (inactive). The GI50 (PC-3) was > 100 µM (inactive), the GI50 (UACC-62) was > 100 µM (inactive) and the GI50 (A549) was > 100 µM (inactive). For the same compound, the GI50 (Hs-578T) was > 100 µM (inactive), the GI50 (HCT-15) was over 100 µM and the GI50 (RXF 393) was > 100 µM (inactive). For the same compound, the GI50 (OVCAR-8) was > 100 µM (inactive), the GI50 (U-251) was > 100 µM (inactive) and the GI50 (CAKI-1) was > 100 µM (inactive). The GI50 (UACC-257) was > 100 µM (inactive).

`C=C(C(=O)O)C1CCC(CC/C=C(\C)CC/C=C(\C)CCC=C(C)C)CO1` (stereo unspecified) was tested, and the GI50 (MDA-N) was 11 µM (inactive), the GI50 (SN12C) was 14.2 µM (inactive) and the GI50 (A498) was 19.4 µM (inactive). The GI50 (OVCAR-4) was 27.4 µM (inactive), the GI50 (SK-MEL-5) was 12.5 µM (inactive) and the GI50 (NCI-H522) was 20.7 µM (inactive). The GI50 (BT-549) was 18 µM (inactive), the GI50 (DU-145) was 17.5 µM (inactive) and the GI50 (SF-268) was 28.2 µM (inactive). For the same compound, the GI50 (MDA-MB-231) was 42.7 µM (inactive), the GI50 (SW-620) was 15.7 µM (inactive) and the GI50 (HCT-116) was 4.99 µM (inactive). The GI50 (SK-MEL-2) was 17.3 µM (inactive), the GI50 (NCI-H226) was 0.0723 µM (active) and the GI50 (HT-29) was 11.7 µM (inactive). The GI50 (NCI-H23) was 18.5 µM (inactive), the GI50 (NCI/ADR-RES) was 27.1 µM (inactive) and the GI50 (SK-MEL-28) was 14.3 µM (inactive). For the same compound, the GI50 (MDA-MB-435) was 18 µM (inactive), the GI50 (HL-60) was 4.01 µM (inactive) and the GI50 (MCF7) was 5.97 µM (inactive). The GI50 (EKVX) was 13.3 µM (inactive), the GI50 (SF-295) was 18.2 µM (inactive) and the GI50 (UO-31) was 12.5 µM (inactive). The GI50 (M14) was 11.1 µM (inactive), the GI50 (SNB-19) was 13.6 µM (inactive) and the GI50 (KM12) was 14.8 µM (inactive). For the same compound, the GI50 (SNB-75) was > 100 µM (inactive), the GI50 (786-0) was 11 µM (inactive) and the GI50 (OVCAR-5) was 18 µM (inactive). The GI50 (T47D) was 26.2 µM (inactive), the GI50 (HOP-62) was 23.1 µM (inactive) and the GI50 (IGROV-1) was 18.5 µM (inactive). For the same compound, the GI50 (ACHN) was 28.6 µM (inactive), the GI50 (SK-OV-3) was 82.2 µM (inactive) and the GI50 (LOX IMVI) was 12.2 µM (inactive). The GI50 (TK-10) was 23 µM (inactive), the GI50 (CCRF-CEM) was 22.6 µM (inactive) and the GI50 (Malme-3M) was 21.5 µM (inactive). The GI50 (COLO 205) was 11.2 µM (inactive), the GI50 (PC-3) was 24.8 µM (inactive) and the GI50 (UACC-62) was 40 µM (inactive). For the same compound, the GI50 (A549) was 7.89 µM (inactive), the GI50 (Hs-578T) was 12 µM (inactive) and the GI50 (SF-539) was 12.1 µM (inactive). For the same compound, the GI50 (HCT-15) was 13 µM, the GI50 (RXF 393) was 12.4 µM (inactive) and the GI50 (OVCAR-8) was 18.8 µM (inactive). The GI50 (U-251) was 20.1 µM (inactive), the GI50 (CAKI-1) was 32.3 µM (inactive) and the GI50 (UACC-257) was 15.3 µM (inactive).

`CC(C)=CCC/C(C)=C/CC/C(C)=C/CC/C(C)=C/C=C/C=C(\C)CC/C=C(\C)CC/C=C(\C)CCC=C(C)C` was tested, and the GI50 (MDA-N) was > 68.5 µM (inactive), the GI50 (SN12C) was > 39.4 µM (inactive) and the GI50 (A498) was > 100 µM (inactive). The GI50 (HOP-92) was 45.5 µM (inactive), the GI50 (OVCAR-4) was > 57.4 µM (inactive) and the GI50 (NCI-H460) was 34.8 µM (inactive). For the same compound, the GI50 (SK-MEL-5) was 44.1 µM (inactive), the GI50 (NCI-H522) was 14.8 µM (inactive) and the GI50 (BT-549) was > 100 µM (inactive). The GI50 (HCC 2998) was > 100 µM (inactive), the GI50 (DU-145) was > 56.9 µM (inactive) and the GI50 (SF-268) was > 58.7 µM (inactive). For the same compound, the GI50 (MDA-MB-231) was > 70.5 µM (inactive), the GI50 (K562) was 17.2 µM (inactive) and the GI50 (SW-620) was > 100 µM (inactive). For the same compound, the GI50 (HCT-116) was > 92.5 µM (inactive), the GI50 (SK-MEL-2) was > 100 µM (inactive) and the GI50 (NCI-H226) was > 100 µM (inactive). The GI50 (HT-29) was > 100 µM (inactive), the GI50 (NCI-H23) was 68.2 µM (inactive) and the GI50 (NCI/ADR-RES) was 50.7 µM (inactive). The GI50 (SK-MEL-28) was > 100 µM (inactive), the GI50 (MDA-MB-435) was > 76.6 µM (inactive) and the GI50 (HL-60) was 3.02 µM (inactive). For the same compound, the GI50 (MOLT-4) was 19.7 µM (inactive), the GI50 (OVCAR-3) was > 100 µM (inactive) and the GI50 (MCF7) was 44.2 µM (inactive). The GI50 (EKVX) was 32.3 µM (inactive), the GI50 (SF-295) was > 100 µM (inactive) and the GI50 (UO-31) was 25.3 µM (inactive). For the same compound, the GI50 (M14) was > 100 µM (inactive), the GI50 (SNB-19) was > 100 µM (inactive) and the GI50 (KM12) was 31.8 µM (inactive). The GI50 (SNB-75) was > 71.6 µM (inactive), the GI50 (786-0) was 22.2 µM (inactive) and the GI50 (OVCAR-5) was > 100 µM (inactive). For the same compound, the GI50 (T47D) was 72.1 µM (inactive), the GI50 (HOP-62) was 72.6 µM (inactive) and the GI50 (IGROV-1) was 17.5 µM (inactive). For the same compound, the GI50 (ACHN) was 31.5 µM (inactive), the GI50 (SK-OV-3) was > 100 µM (inactive) and the GI50 (LOX IMVI) was 21.2 µM (inactive). The GI50 (TK-10) was > 58.7 µM (inactive), the GI50 (CCRF-CEM) was 24.6 µM (inactive) and the GI50 (Malme-3M) was > 77.1 µM (inactive). The GI50 (COLO 205) was > 100 µM (inactive), the GI50 (RPMI-8226) was 38.4 µM (inactive) and the GI50 (PC-3) was > 81.5 µM (inactive). For the same compound, the GI50 (UACC-62) was > 100 µM (inactive), the GI50 (A549) was 60 µM (inactive) and the GI50 (Hs-578T) was > 82.6 µM (inactive). For the same compound, the GI50 (SF-539) was > 100 µM (inactive), the GI50 (HCT-15) was over 100 µM and the GI50 (RXF 393) was > 100 µM (inactive). The GI50 (OVCAR-8) was > 63 µM (inactive), the GI50 (U-251) was 63.7 µM (inactive) and the GI50 (CAKI-1) was 16.8 µM (inactive). The GI50 (UACC-257) was > 100 µM (inactive).

Reference: ChEMBL document CHEMBL1201862, “PubChem BioAssay data set” (2004)
